Measured values from patent US20250195502A1, “APPLICATION OF TETRACYCLIC COMPOUND IN TREATMENT OF TUMORS” (SHANGHAI SHIJIANG BIOTECHNOLOGY CO., LTD, priority 2022, published 2025).

What follows are compounds tested on Con-NCI-H82 cell (NCI-H82 transfected with empty virus vector) (assay: Cell viability assay (Promega CellTiter-Glo), inhibitory effect on Con-NCI-H82 cell). Details: Homo sapiens; NCI-H82 transfected with empty virus vector (control); CellTiter-Glo; read-out: inhibitory effect on Con-NCI-H82 (IC50).
Format: cell-based
Protocol: (§1) The role of expression level of NNMT gene and DNMT1 in the sensitivity of NCI-H82 cell to the compounds prepared in the Examples of the present invention was determined
(§2) The expression of NNMT protein in NCI-H82 cell was overexpressed by inserting the NNMT gene into NCI-H82 cell using a viral vector, and the NNMT protein-overexpressing NCI-H82 cell (ov-NNMT NCI-H82 cell) was obtained. The expression of DNMT1 in NCI-H82 cell was knocked down transfecting (the by shRNA nucleotide sequence of shRNA was […] TTTTTG (SEQ ID No: 2)) using a viral vector, and the NCI-H82 cell with low expression of DNMT1 protein (sh-DNMT1 NCI-H82 cell) was obtained. The control NCI-H82 cell (Con-NCI-H82 cell) was obtained by transfecting NCI-H82 cell with empty virus vector without carrying NNMT gene and shRNA. The expressing content of NNMT protein and DNMT1 protein in the Con-NCI-H82 cell, the expressing content of NNMT protein in the ov-NNMT NCI-H82 cell, and the expressing content of DNMT1 protein in the sh-DNMT1 NCI-H82 cell were detected using Western Blot assay (as shown in FIG. 15 and FIG. 16), it could be seen from FIG. 15 and FIG. 16 that the NNMT protein was overexpressed in the ov-NNMT NCI-H82 cell and the expression of DNMT1 protein was knocked down (i.e, low expression) in the sh-DNMT1 NCI-H82 cell compared with the expression level of NNMT protein and DNMT protein in the Con-NCI-H82 cell.
For CCCCCCCCCCCCc1c2[n+](cc3c(OC)c(OC)ccc13)CCc1cc3c(cc1-2)OCO3 [compound AB31763], the IC50 was 80 nM. With CCCCCCCCCCCCc1c2[n+](cc3c(OCCCCCCCCCC)c(OC)ccc13)CCc1cc3c(cc1-2)OCO3 [compound AB31795] the IC50 was 240 nM. CCCCCCCCCCCCc1c2[n+](cc3c(OCCCCCCCC)c(OC)ccc13)CCc1cc3c(cc1-2)OCO3 [compound AB31796] showed an IC50 of 270 nM. Work on CCCCCCCCCCCCc1c2[n+](cc3c(OCCCCCC)c(OC)ccc13)CCc1cc3c(cc1-2)OCO3 [compound AB31797] yielded an IC50 of 120 nM. CCCCCCCCCCCCCCc1c2[n+](cc3c(OC)c(OC)ccc13)CCc1cc3c(cc1-2)OCO3 [compound AB31800] showed an IC50 of 220 nM. In the case of COc1ccc2cc3[n+](cc2c1OC)CCc1cc2c(cc1-3)OCCO2 [compound AB31811], the IC50 is reported as 3120 nM. CCCOc1c(OC)ccc2cc3[n+](cc12)CCc1cc2c(cc1-3)OCO2 [compound AB35511] gave an IC50 of 610 nM. For COc1ccc2cc3[n+](cc2c1OCc1ccc(-c2ccccc2)cc1)CCc1cc2c(cc1-3)OCO2 [compound AB35532], the IC50 was 340 nM. Compound COc1ccc2cc3[n+](cc2c1OCCBr)CCc1cc2c(cc1-3)OCO2 [compound AB35595] has an IC50 of 680 nM. In the case of CCOc1c(OC)ccc2cc3[n+](cc12)CCc1cc2c(cc1-3)OCO2 [compound AB36412], the IC50 is reported as 1170 nM. Compound COc1ccc2cc3[n+](cc2c1OCCF)CCc1cc2c(cc1-3)OCO2 [compound AB36484] has an IC50 of 1840 nM. Work on [2H]C([2H])([2H])Oc1c(OC)ccc2cc3[n+](c(C4CCCC4)c12)CCc1cc2c(cc1-3)OCO2.[Br-] [compound AB36508] yielded an IC50 of 560 nM.

What follows are compounds tested on sh-DNMT1 NCI-H82 cell (DNMT1 knocked down NCI-H82) (assay: Cell viability assay (Promega CellTiter-Glo), inhibitory effect on sh-DNMT1 NCI-H82 cell). Details: Homo sapiens, NCI-H82 with DNMT1 knocked down by shRNA.
Format: cell-based
Protocol: as §1, §2
CCCCCCCCCCCCc1c2[n+](cc3c(OC)c(OC)ccc13)CCc1cc3c(cc1-2)OCO3 [compound AB31763] showed an IC50 of 420 nM. CCCCCCCCCCCCc1c2[n+](cc3c(OCCCCCCCCCC)c(OC)ccc13)CCc1cc3c(cc1-2)OCO3 [compound AB31795] was tested, and the IC50 was 880 nM. With CCCCCCCCCCCCc1c2[n+](cc3c(OCCCCCCCC)c(OC)ccc13)CCc1cc3c(cc1-2)OCO3 [compound AB31796] the IC50 was 760 nM. In the case of CCCCCCCCCCCCc1c2[n+](cc3c(OCCCCCC)c(OC)ccc13)CCc1cc3c(cc1-2)OCO3 [compound AB31797], the IC50 is reported as 480 nM. CCCCCCCCCCCCCCc1c2[n+](cc3c(OC)c(OC)ccc13)CCc1cc3c(cc1-2)OCO3 [compound AB31800] gave an IC50 of 580 nM. COc1ccc2cc3[n+](cc2c1OC)CCc1cc2c(cc1-3)OCCO2 [compound AB31811] was tested, and the IC50 was 12400 nM. With CCCOc1c(OC)ccc2cc3[n+](cc12)CCc1cc2c(cc1-3)OCO2 [compound AB35511] the IC50 was 2560 nM. With COc1ccc2cc3[n+](cc2c1OCc1ccc(-c2ccccc2)cc1)CCc1cc2c(cc1-3)OCO2 [compound AB35532] the IC50 was 2560 nM. Work on COc1ccc2cc3[n+](cc2c1OCCBr)CCc1cc2c(cc1-3)OCO2 [compound AB35595] yielded an IC50 of 3150 nM. For CCOc1c(OC)ccc2cc3[n+](cc12)CCc1cc2c(cc1-3)OCO2 [compound AB36412], the IC50 was 4690 nM. Compound COc1ccc2cc3[n+](cc2c1OCCF)CCc1cc2c(cc1-3)OCO2 [compound AB36484] has an IC50 of 8320 nM. [2H]C([2H])([2H])Oc1c(OC)ccc2cc3[n+](c(C4CCCC4)c12)CCc1cc2c(cc1-3)OCO2.[Br-] [compound AB36508] gave an IC50 of 2820 nM.

These compounds were tested on ov-NNMT NCI-H82 cell (NNMT protein-overexpressing NCI-H82) (assay: Cell viability assay (Promega CellTiter-Glo), inhibitory effect on ov-NNMT NCI-H82 cell). Details: Homo sapiens.
Format: cell-based
Protocol: as §1, §2
With CCCCCCCCCCCCc1c2[n+](cc3c(OC)c(OC)ccc13)CCc1cc3c(cc1-2)OCO3 [compound AB31763] the IC50 was 310 nM. Compound CCCCCCCCCCCCc1c2[n+](cc3c(OCCCCCCCCCC)c(OC)ccc13)CCc1cc3c(cc1-2)OCO3 [compound AB31795] has an IC50 of 680 nM. CCCCCCCCCCCCc1c2[n+](cc3c(OCCCCCCCC)c(OC)ccc13)CCc1cc3c(cc1-2)OCO3 [compound AB31796] showed an IC50 of 640 nM. CCCCCCCCCCCCc1c2[n+](cc3c(OCCCCCC)c(OC)ccc13)CCc1cc3c(cc1-2)OCO3 [compound AB31797] showed an IC50 of 540 nM. Work on CCCCCCCCCCCCCCc1c2[n+](cc3c(OC)c(OC)ccc13)CCc1cc3c(cc1-2)OCO3 [compound AB31800] yielded an IC50 of 650 nM. COc1ccc2cc3[n+](cc2c1OC)CCc1cc2c(cc1-3)OCCO2 [compound AB31811] gave an IC50 of 7340 nM. With CCCOc1c(OC)ccc2cc3[n+](cc12)CCc1cc2c(cc1-3)OCO2 [compound AB35511] the IC50 was 1380 nM. COc1ccc2cc3[n+](cc2c1OCc1ccc(-c2ccccc2)cc1)CCc1cc2c(cc1-3)OCO2 [compound AB35532] gave an IC50 of 960 nM. With COc1ccc2cc3[n+](cc2c1OCCBr)CCc1cc2c(cc1-3)OCO2 [compound AB35595] the IC50 was 1540 nM. Work on CCOc1c(OC)ccc2cc3[n+](cc12)CCc1cc2c(cc1-3)OCO2 [compound AB36412] yielded an IC50 of 2580 nM. Compound COc1ccc2cc3[n+](cc2c1OCCF)CCc1cc2c(cc1-3)OCO2 [compound AB36484] has an IC50 of 3850 nM. For [2H]C([2H])([2H])Oc1c(OC)ccc2cc3[n+](c(C4CCCC4)c12)CCc1cc2c(cc1-3)OCO2.[Br-] [compound AB36508], the IC50 was 1340 nM.
